Paper PMC10581251, “Antisense inhibition of RNA polymerase α subunit of Clostridioides difficile” (Microbiology Spectrum, 2023)
Where a name gives a salt, the structure may show the parent alone. Read-outs that look alike come from different tables or passages of the source. Where no end group is shown, it is not given here.

Tests used:
C. difficile ATCC 630 [1] = assay: microbe, parasite or virus in culture
Protocol: (§1) The susceptibility of C. difficile isolates to the CPP-PNA conjugates or to the CPP alone was determined in vitro as described before with slight modifications ([43] [–] [45]). Briefly, the CPP-PNA conjugates, the CPP alone, and the antibiotics vancomycin and fidaxomicin were added in triplicate to the first row of ultra-low adhesion 96-well plates (Corning Inc., Corning, NY). A suspension of C. difficile equivalent to 0.5 McFarland solution was added to Mueller-Hilton II broth, which was then added to the ultra-low adhesion plate and then serially diluted. The plates were incubated anaerobically for 48 hours at 37°C. The minimum inhibitory concentration was defined as the lowest concentration of the CPP-PNA conjugate that could inhibit bacterial growth when observed visually.
(§2) The MIC and MBC experiments were repeated twice.

[2] = tested on: C. difficile ATCC BAA 1870; assay: MIC/MBC broth microdilution, C. difficile ATCC BAA 1870; format: cell-based, Clostridioides difficile
Protocol: as §1, §2

C. difficile ATCC 43255 = assay: MIC/MBC broth microdilution, C. difficile ATCC 43255; format: cell-based, Clostridioides difficile
Protocol: as §1, §2

[3] = tested on: clinical isolates of C. difficile; assay: MIC against clinical isolates of C. difficile (summary); format: cell-based, Clostridioides difficile; settings: range over isolates of Table 3
Protocol: as §1, §2

[4] = tested on: Lactobacillus brevis ATCC 14869; assay: MIC gut microflora, Lactobacillus brevis; format: cell-based; settings: Levilactobacillus brevis, ATCC14869, 48 h
Protocol: (§3) The susceptibility of gut microflora strains to the rpoA-TAT conjugate was determined using the broth microdilution assay, as described above. Briefly, bacterial suspensions of Bifidobacterium sp. and Bacteroides sp., in supplemented BHIS broth, and Lactobacilli strains, in MRS broth, were added to ultra-low adhesion 96-well plates and serially diluted. The MIC was recorded after 48 hours.

[5] = tested on: Bacteroides fragilis HM 714; assay: MIC gut microflora, Bacteroides fragilis; format: cell-based; settings: Bacteroides fragilis, HM714, 48 h
Protocol: as §3

C. difficile 630 [6] = assay: Killing kinetics (time-kill assay); format: cell-based, Clostridioides difficile; settings: 1× MIC, within 24 hours of incubation, inoculum ~5 × 10^5 CFU/mL
Protocol: The killing kinetics of the PNA construct was determined as described previously ([45] [–] [47]). Briefly, an overnight culture of C. difficile 630 was diluted 1:50 into fresh Mueller Hilton II broth (~10^5 CFU/mL) and added in triplicate to low adhesion microcentrifuge tubes containing either sterile water, the rpoA-TAT construct (1× MIC), or the positive controls vancomycin or fidaxomicin (1× MIC). The number of viable bacteria in each treatment group was determined by taking aliquots at 0, 4, 8, 12, 16, and 24 hours; these aliquots were then serially diluted and plated on BHIS agar plates. The plates were incubated anaerobically, and the number of colony-forming units for each treatment group was recorded the following day. The experiment was repeated twice.

C. difficile 1082 = assay: MIC/MBC broth microdilution, C. difficile 1082; format: cell-based, Clostridioides difficile
Protocol: as §1, §2

[7] = tested on: C. difficile ATCC BAA 1870; assay: Effect of pH on MIC/MBC, C. difficile ATCC BAA 1870; format: cell-based, Clostridioides difficile; settings: Clostridioides difficile
Protocol: as §1, §2
(§4) The susceptibility of C. difficile (ATCC 630 and ATCC BAA 1870) to the rpoA-TAT conjugate was evaluated over a pH range of 6 to 9 using the broth microdilution method ([43], [46] [–] [48]). The desired pH for susceptibility testing was attained by the addition of either 0.1 N HCL or 1 N NaOH to the media. The experiment was repeated twice.

[8] = tested on: spore formation by C. difficile ATCC 630; assay: Spore formation inhibition; format: cell-based, Clostridioides difficile; settings: 0.5× MIC, 12 hours
Protocol: After the incubation period, the total bacterial count for each treatment group was determined by serial dilution and plating on BHIS agar plates supplemented with 0.1% taurocholic acid. To determine the presence of spores, the remaining bacterial culture from each treatment group was heated at 65°C for 30 minutes to ensure all vegetative cells were killed. The bacterial culture from each treatment group was then serially diluted and plated on BHIS agar plates supplemented with 0.1% taurocholic acid. The plates were incubated overnight, and the CFU counts for each treatment group were determined the following day.

[9] = tested on: Lactobacillus gasseri ATCC 19992; assay: MIC gut microflora, Lactobacillus gasseri; format: cell-based
Protocol: as §3

C. difficile ATCC 630 [10] = assay: Effect of pH on MIC/MBC, C. difficile ATCC 630; format: cell-based, Clostridioides difficile; settings: Clostridioides difficile
Protocol: as §1, §2, §4

C. difficile 1079 = assay: MIC/MBC broth microdilution, C. difficile 1079; format: cell-based, Clostridioides difficile
Protocol: as §1, §2

[11] = tested on: toxin A and toxin B production by C. difficile 630; assay: Toxin production inhibition (ELISA); format: cell-based, Clostridioides difficile; settings: sub-inhibitory concentrations 0.125×, 0.25×, 0.5× MIC, 8 hours, ELISA
Protocol: After the incubation period, the bacterial count in each treatment group was determined by serial dilution and plating. Toxin content in the supernatant of each treatment group was determined using an enzyme-linked immunosorbent assay (ELISA, tgcBIOMICS) kit, as per the manufacturer’s protocol.

C. difficile 1071 = assay: MIC/MBC broth microdilution, C. difficile 1071; format: cell-based, Clostridioides difficile
Protocol: as §1, §2

C. difficile 630 [12] = assay: Effect of high bacterial inoculum on activity; format: cell-based, Clostridioides difficile; settings: 8 hours
Protocol: The in vitro efficacy of the PNA constructs against a high inoculum size of C. difficile 630 was determined. Briefly, the PNA constructs and control antibiotics, at a concentration of 1× MIC, were added in triplicate to low adhesion microcentrifuge tubes (Corning Inc., Corning, NY). A high inoculum of C. difficile suspension equivalent to ~5 × 10^6 and ~5 × 10^7 cells was added to the tubes, which were incubated anaerobically at 37°C. The number of viable bacteria in each treatment group was determined by serial dilution and plating on BHIS agar plates at 8 hours and 24 hours post-incubation, respectively. The effect of a high inoculum on the activity of the PNA construct was repeated twice.

[13] = tested on: Bifidobacterium longum subsp. longum HM 846; assay: MIC gut microflora, Bifidobacterium longum; format: cell-based
Protocol: as §3

[14] = tested on: Lactobacillus rhamnosus ATCC 53103; assay: MIC gut microflora, Lactobacillus rhamnosus; format: cell-based; settings: Lacticaseibacillus rhamnosus, ATCC53103, 48 h
Protocol: as §3

[15] = aliquots of wells without growth plated on BHIS agar, repeated twice
[16] = broth microdilution, Mueller-Hilton II broth, anaerobic 48 hours 37°C, visual, triplicate, repeated twice
[17] = broth microdilution, anaerobic 48 hours 37°C, visual, read-out: MIC
[18] = plated on BHIS agar, read-out: MBC

Q: Which MBC (C. difficile ATCC 630 [1]; [15]) does the source give for “KFFKFFKFFK-O-CATGGACAAAAC-NH2 [(KFF)3K-rpoA]” here?
A: 32 µM

Q: And the MIC (C. difficile ATCC 630 [1]; [16])?
A: 32 µM

Q: For “GRKKKRRQRRRYK-O-CATACAATTCTC-NH 2 [rpoA-TAT mismatch]”, which MIC [2, 17] is on record?
A: >32 µM

Q: What about the MBC [2, 18] of the same compound?
A: >32 µM

Q: What about the MIC (C. difficile ATCC 43255; [17]) of the same compound?
A: >32 µM

Q: And the MBC (C. difficile ATCC 43255; [18])?
A: >32 µM

Q: What about the “MIC against clinical isolates of C. difficile” value [3] of the same compound?
A: > 32 µM

Q: And the MBC (C. difficile ATCC 630 [1]; [15])?
A: >32 µM

Q: And the MIC (C. difficile ATCC 630 [1]; [16])?
A: >32 µM

Q: How did the MBC (C. difficile ATCC 630 [1]; [15]) turn out when “RXRRXRRXRRXRXB-O-CATGGACAAAAC-NH2 [(RXR)4XB -rpoA]” was run?
A: 8 µM

Q: What about the MIC (C. difficile ATCC 630 [1]; [16]) of the same compound?
A: 8 µM

Q: Which results are given for “RFRRFRRFRRFRXB-O-CATGGACAAAAC-NH2 [(RFR)4XB -rpoA]”?
A: MBC (C. difficile ATCC 630 [1]; [15]): 8 µM; MIC (C. difficile ATCC 630 [1]; [16]): 8 µM

Q: Which MBC (C. difficile ATCC 630 [1]; [15]) does the source give for KKKKKKKK-O-CATGGACAAAAC-NH2 [K8-rpoA] here?
A: 32 µM

Q: What about the MIC (C. difficile ATCC 630 [1]; [16]) of the same compound?
A: 32 µM

Q: How did the MIC (C. difficile ATCC 630 [1]; [16]) turn out when GRKKKRRQRRRYK [HIV-TAT] was run?
A: >64 µM

Q: What does the source list for `CN[C@H](CC(C)C)C(=O)N[C@H]1C(=O)N[C@@H](CC(N)=O)C(=O)N[C@H]2C(=O)N[C@H]3C(=O)N[C@H](C(=O)N[C@H](C(=O)O)c4cc(O)cc(O)c4-c4cc3ccc4O)[C@H](O)c3ccc(c(Cl)c3)Oc3cc2cc(c3O[C@@H]2O[C@H](CO)[C@@H](O)[C@H](O)[C@H]2O[C@H]2C[C@](C)(N)[C@H](O)[C@H](C)O2)Oc2ccc(cc2Cl)[C@H]1O` [Vancomycin, Vancomycin hydrochloride]?
A: MIC [4]: > 64 µM; MIC [5]: 64 µM; MBC ([2]; Clostridioides difficile, BAA1870): 4 µM; MIC ([2]; Clostridioides difficile, BAA1870, 48 h): 4 µM; reduction of bacterial burden (C. difficile 630 [6]): ~ 1.6 log10 CFU/mL; MBC (C. difficile 1082; Clostridioides difficile, 1082): 2 µM; MIC (C. difficile 1082; Clostridioides difficile, 1082, 48 h): 2 µM; MBC ([7]; BAA1870, pH 6): 4 µM; MIC ([7]; BAA1870, pH 6): 4 µM; MBC ([7]; BAA1870, pH 7): 8 µM; MIC ([7]; BAA1870, pH 7): 4 µM; MBC ([7]; BAA1870, pH 8): 16 µM; MIC ([7]; BAA1870, pH 8): 8 µM; inhibition of spore formation (in words) [8]: did not inhibit spore formation; MIC ([9]; Lactobacillus gasseri, ATCC19992, 48 h): 1 µM; MIC ([9]; broth microdilution, MRS broth, 48 hours, read-out: MIC): 1 µM; MBC (C. difficile ATCC 630 [10]; ATCC630, pH 6): 2 µM; MIC (C. difficile ATCC 630 [10]; ATCC630, pH 6): 2 µM; MBC (C. difficile ATCC 630 [10]; ATCC630, pH 7): 4 µM; MIC (C. difficile ATCC 630 [10]; ATCC630, pH 7): 4 µM; MBC (C. difficile ATCC 630 [10]; ATCC630, pH 8): 16 µM; MIC (C. difficile ATCC 630 [10]; ATCC630, pH 8): 8 µM; MBC (C. difficile ATCC 43255; Clostridioides difficile, ATCC43255): 4 µM; MIC (C. difficile ATCC 43255; Clostridioides difficile, ATCC43255, 48 h): 4 µM; MBC (C. difficile 1079; Clostridioides difficile, 1079): 2 µM; MIC (C. difficile 1079; Clostridioides difficile, 1079, 48 h): 2 µM; inhibition of toxin production (in words) [11]: did not inhibit toxin production; MBC (C. difficile 1071; Clostridioides difficile, 1071): 2 µM; MIC (C. difficile 1071; Clostridioides difficile, 1071, 48 h): 2 µM; Log CFU (C. difficile 630 [12]; inoculum 5 × 10^6, 1× MIC): 5.37; Log reduction (C. difficile 630 [12]; inoculum 5 × 10^6, 1× MIC, vs no treatment): 1; Log CFU (C. difficile 630 [12]; inoculum 5 × 10^7, 1× MIC): 7.03; MIC ([13]; Bifidobacterium longum, 48 h): 2 µM; MIC ([13]; broth microdilution, supplemented BHIS broth, 48 hours): 2 µM; MIC [14]: > 64 µM; MBC (C. difficile ATCC 630 [1]; Clostridioides difficile, ATCC630): 2 µM; MIC (C. difficile ATCC 630 [1]; Clostridioides difficile, ATCC630, 48 h): 2 µM
